Patent US8530663B2, “1-(2-phenoxymethylheteroaryl)piperidine and piperazine compounds” (Theravance, Inc., priority 2010, dated 2013)
Marks after values point to notes of the source that are not given here.

Key:
hSERT [1] = target: T1, hSERT (Homo sapiens, UniProt P31645); assay: hSERT membrane radioligand binding assay (3H-citalopram); conditions: hSERT membranes, 1.0 nM 3H-citalopram; for Ki: read-out: SERT pKi (converted)
T1 construct: expressed in transfected cells; host or cells: HEK-293
Method: (§1) Membrane radioligand binding assays were used to measure inhibition of labeled ligand (^3H-citalopram or ^3H-nisoxetine or ^3H-WIN35428) binding to membranes prepared from cells expressing the respective human recombinant transporter (hSERT or hNET or hDAT) in order to determine the pKi values of test compounds at the transporters.
(§2) Recombinant human embryonic kidney (HEK-293) derived cell lines stably transfected with hSERT or hNET, respectively, were grown in DMEM medium supplemented with 10% dialyzed FBS (for hSERT) or FBS (for hNET), 100 μg/ml penicillin, 100 μg/ml streptomycin, 2 mM L-glutamine and 250 μg/ml of the aminoglycoside antibiotic G418, in a 5% CO2 humidified incubator at 37° C. When cultures reached 80% confluence, the cells were washed thoroughly in PBS (without Ca^2+ and Mg^2+) and lifted with 5 mM EDTA in PBS. Cells were pelleted by centrifugation, resuspended in lysis buffer (10 mM Tris-HCl, pH7.5 containing 1 mM EDTA), homogenized, pelleted by centrifugation, then resuspended in 50 mM Tris-HCl, pH 7.5 and 10% sucrose at 4° C. Protein concentration of the membrane suspension was determined using a Bio-Rad Bradford Protein Assay kit. Membranes were snap frozen and stored at −80° C. Chinese hamster ovary membranes expressing hDAT (CHO-DAT) were purchased from PerkinElmer and stored at −80° C.
(§3) Binding assays were performed in a 96-well assay plate in a total volume of 200 μL assay buffer (50 mM Tris-HCl, 120 mM NaCl, 5 mM KCl, pH 7.4) with 0.5, 1, and 3 μg membrane protein, for SERT, NET and DAT, respectively.
(§4) Stock solutions (10 mM in DMSO) of test compound were prepared and serial dilutions made using Dilution Buffer (50 mM Tris-HCl, 120 mM NaCl, 5 mM KCl, pH 7.4, 0.1% BSA, 400 μM ascorbic acid).
(§5) Following a 60 minute incubation at 22° C. (or a period sufficient to reach equilibrium), the membranes were harvested by rapid filtration over a 96-well UniFilter GF/B plate, pretreated with 0.3% polyethyleneimine, and washed 6 times with 300 μl wash buffer (50 mM Tris-HCl, 0.9% NaCl, pH 7.5 at 4° C.). Plates were dried overnight at room temperature, ˜45 μl of MicroScint™-20 (Perkin Elmer) added and bound radioactivity quantitated via liquid scintillation spectroscopy. Inhibition curves and saturation isotherms were analyzed using GraphPad Prism Software package (GraphPad Software, Inc., San Diego, Calif.). IC50 values were generated from concentration response curves using the Sigmoidal Dose Response (variable slope) algorithm in Prism GraphPad. Kd and Bmax values for the radioligand were generated from saturation isotherms using the Saturation Binding Global Fit algorithm in Prism GraphPad. pKi (negative decadic logarithm of Ki) values for test compounds were calculated from the best-fit IC50 values, and the Kd value of the radioligand, using the Cheng-Prusoff equation (Cheng & Prusoff (1973) Biochem. Pharmacol. 22(23):3099-3108): Ki=IC50/(1+[L]/Kd), where [L]=concentration radioligand.

hNET [2] = target: T2, hNET (Homo sapiens, UniProt P23975); assay: hNET membrane radioligand binding assay (3H-nisoxetine); conditions: hNET membranes, 1.0 nM 3H-nisoxetine; for Ki: read-out: NET pKi (converted)
T2 construct: expressed in transfected cells; host or cells: HEK-293
T2 sequence (P23975 whole entry): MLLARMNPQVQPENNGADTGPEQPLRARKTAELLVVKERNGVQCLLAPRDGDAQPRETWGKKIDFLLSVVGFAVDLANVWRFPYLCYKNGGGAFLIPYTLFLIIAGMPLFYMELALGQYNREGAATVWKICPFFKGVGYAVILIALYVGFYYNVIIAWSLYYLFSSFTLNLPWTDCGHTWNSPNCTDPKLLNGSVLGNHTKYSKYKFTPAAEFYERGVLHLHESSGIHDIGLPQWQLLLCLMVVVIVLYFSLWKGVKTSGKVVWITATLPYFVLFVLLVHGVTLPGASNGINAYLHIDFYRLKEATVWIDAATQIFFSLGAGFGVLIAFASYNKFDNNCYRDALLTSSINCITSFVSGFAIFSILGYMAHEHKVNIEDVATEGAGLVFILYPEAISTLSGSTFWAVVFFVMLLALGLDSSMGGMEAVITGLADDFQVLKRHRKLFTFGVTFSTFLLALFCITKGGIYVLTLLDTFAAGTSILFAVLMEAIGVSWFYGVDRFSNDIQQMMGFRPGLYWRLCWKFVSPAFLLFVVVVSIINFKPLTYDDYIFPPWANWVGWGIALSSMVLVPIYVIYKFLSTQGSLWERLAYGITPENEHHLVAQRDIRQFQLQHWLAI
Method: as §1, §2, §3, §4, §5

hSERT [3] = target: T1, hSERT; assay: hSERT neurotransmitter uptake assay (3H-5-HT); type: cell-based; conditions: serotonin reuptake inhibition, 3H-5-HT uptake, HEK-293 hSERT cells (no asterisk); for IC50: read-out: SERT pIC50 (converted)
Method: (§6) Neurotransmitter uptake assays were used to measure inhibition of ^3H-serotonin (^3H-5-HT), ^3H-norepinephrine (^3H-NE), and ^3H-dopamine (^3H-DA) uptake into cells expressing the respective transporter (hSERT, hNET or hDAT) in order to determine the pIC50 values of test compounds at the transporters.
(§7) HEK-293 derived cell lines stably-transfected with hSERT, hNET, or hDAT, respectively, were grown in DMEM medium supplemented with 10% dialyzed FBS (for hSERT) or FBS (for hNET and hDAT), 100 μg/ml penicillin, 100 μg/ml streptomycin, 2 mM L-glutamine and 250 μg/ml of the aminoglycoside antibiotic G418 (for hSERT and hNET) or 800 ug/ml (for hDAT), in a 5% CO2 humidified incubator at 37° C. When cultures reached 80% confluence, the cells were washed thoroughly in PBS (without Ca^2+ and Mg^2+) and lifted with 5 mM EDTA in PBS. Cells were harvested by centrifugation at 1100 rpm for 5 minutes, washed once by resuspension in PBS, then centrifuged. The supernatant was discarded and the cell pellet resuspended, by gentle trituration, in room temperature Krebs-Ringer bicarbonate buffer containing HEPES (10 mM), CaCl2 (2.2 mM), ascorbic acid (200 μM) and pargyline (200 μM), pH 7.4. The final concentration of cells in the cell suspension was 7.5×10^4 cells/ml, 1.25×10^5 cells/ml, and 5.0×10^4 cells/ml for SERT, NET, and DAT cell lines, respectively.
(§8) Stock solutions (10 mM in DMSO) of test compound were prepared and serial dilutions prepared using 50 mM Tris-HCl, 120 mM NaCl, 5 mM KCl, pH 7.4, 0.1% BSA, 400 μM ascorbic acid. Test compounds were incubated for 30 minutes at 37° C. with the respective cells, prior to addition of radiolabeled neurotransmitter, ^3H-5-HT (20 nM final concentration), ^3H-NE (50 nM final concentration), or ^3H-DA (100 nM final concentration).
(§9) Following a 10 minute incubation, at 37° C., with radioligand, the cells were harvested by rapid filtration over a 96-well UniFilter GF/B plate, pretreated with 1% BSA, and washed 6 times with 650 μl wash buffer (ice cold PBS). Plates were dried overnight at 37° C., ˜45 μl of MicroScint™-20 (Perkin Elmer) added and incorporated radioactivity quantitated via liquid scintillation spectroscopy. Inhibition curves were analyzed using GraphPad Prism Software package (GraphPad Software, Inc., San Diego, Calif.). IC50 values were generated from concentration response curves using the Sigmoidal Dose Response (variable slope) algorithm in Prism GraphPad.

hNET [4] = target: T2, hNET; assay: hNET neurotransmitter uptake assay (3H-NE); type: cell-based; conditions: norepinephrine reuptake inhibition, 3H-NE uptake, HEK-293 hNET cells (no asterisk); for IC50: read-out: NET pIC50 (converted)
Method: as §6, §7, §8, §9

hSERT [5] = target: T1, hSERT; assay: fluorescence-based serotonin reuptake assay (Tsuruda et al. 2010; data with asterisk); type: cell-based; conditions: serotonin reuptake inhibition, fluorescence-based assay (data indicated by an asterisk)
hNET [6] = target: T2, hNET; assay: fluorescence-based norepinephrine reuptake assay (Tsuruda et al. 2010; data with asterisk); type: cell-based; conditions: norepinephrine reuptake inhibition, fluorescence-based assay (data indicated by an asterisk)

T1 sequence (P31645 whole entry): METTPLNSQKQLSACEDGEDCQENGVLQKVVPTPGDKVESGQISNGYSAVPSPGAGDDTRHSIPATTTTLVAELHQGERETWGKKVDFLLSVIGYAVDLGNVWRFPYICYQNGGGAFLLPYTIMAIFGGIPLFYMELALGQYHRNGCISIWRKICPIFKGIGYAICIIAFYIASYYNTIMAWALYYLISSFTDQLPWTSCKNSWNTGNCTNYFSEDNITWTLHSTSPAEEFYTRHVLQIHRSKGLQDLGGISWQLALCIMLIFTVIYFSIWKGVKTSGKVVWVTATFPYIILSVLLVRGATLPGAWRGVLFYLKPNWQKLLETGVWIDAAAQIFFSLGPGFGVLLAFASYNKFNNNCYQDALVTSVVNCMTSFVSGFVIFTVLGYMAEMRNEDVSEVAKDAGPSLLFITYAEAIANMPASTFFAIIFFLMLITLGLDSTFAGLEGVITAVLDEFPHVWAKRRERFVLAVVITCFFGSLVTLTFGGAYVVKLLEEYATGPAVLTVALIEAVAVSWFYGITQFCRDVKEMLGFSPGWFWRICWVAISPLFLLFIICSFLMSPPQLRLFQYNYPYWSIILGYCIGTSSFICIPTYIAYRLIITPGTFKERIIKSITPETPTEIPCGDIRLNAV

Ki (hSERT [1]) [nM]	Ki (hNET [2]) [nM]	IC50 (hSERT [3]) [nM]	IC50 (hNET [4]) [nM]	SERT pKi (hSERT [1])	NET pKi (hNET [2])	Structure (SMILES)	further results
–	–	–	–	≧7.0	≧7.0	Fc1cccc(Cl)c1OCc1ccncc1C1CCNCC1 [Example 10-4]	SERT pIC50 (hSERT [3]): ≧7.0; NET pIC50 (hNET [4]): ≧7.0
–	–	–	–	≧7.0	≧7.0	Fc1cc(F)c(OCc2cscc2C2CCNCC2)c(F)c1 [Example 28-3]	SERT pIC50 (hSERT [3]): ≧7.0; NET pIC50 (hNET [4]): ≧7.0
–	–	–	–	≧7.0	≧7.0	Clc1cccc(OCc2ccsc2C2CCNCC2)c1 [Example 31-2]	SERT pIC50 (hSERT [5]): ≧7.0*; NET pIC50 (hNET [6]): ≧7.0*
–	–	–	–	≧7.0	≧7.0	Fc1cc(F)c(OCc2ccsc2C2CCNCC2)c(F)c1 [Example 31-3]	SERT pIC50 (hSERT [5]): ≧7.0*; NET pIC50 (hNET [6]): ≧7.0*

Further lines, the molecule ahead of its results:

Structure (SMILES)	Ki (hSERT [1]) [nM]	Ki (hNET [2]) [nM]	IC50 (hSERT [3]) [nM]	IC50 (hNET [4]) [nM]	SERT pKi (hSERT [1])	NET pKi (hNET [2])	further results
Fc1cc(F)c(OCc2ccncc2C2CCNCC2)c(F)c1 [Example 9, 4-(2,4,6-Trifluorophenoxymethyl)-1′,2′,3′,4′,5′,6′-hexahydro[3,4]bipyridinyl]	≤ 100	≤ 100	≤ 100	≤ 100	–	–	–
Fc1cc(F)c(OCc2cccnc2C2CCNCC2)c(F)c1 [Example 13, 3-(2,4,6-Trifluorophenoxymethyl)-1′,2′,3′,4′,5′,6′-hexahydro[2,4]bipyridinyl]	≤ 100	≤ 100	≤ 100	≤ 100	–	–	–
Clc1cccc(OCc2sccc2C2CCNCC2)c1 [Example 24, 4-[2-(3-Chlorophenoxymethyl)thiophen-3-yl]piperidine]	≤ 100	≤ 100	–	–	–	–	IC50 (hSERT [5]; read-out: SERT pIC50 (converted)): ≤ 100 nM; IC50 (hNET [6]; read-out: NET pIC50 (converted)): ≤ 100 nM
Fc1cccc(F)c1OCc1cscc1C1CCNCC1 [Example 27, 4-[4-(2,6-Difluorophenoxymethyl)thiophen-3-yl]piperidine]	≤ 100	≤ 100	≤ 100	≤ 100	–	–	–
